We go through one compound from paper PMC4295349, “Synthetic Antimicrobial Peptides Exhibit Two Different Binding Mechanisms to the Lipopolysaccharides Isolated from Pseudomonas aeruginosa and Klebsiella pneumoniae” (International Journal of Medicinal Chemistry, 2014).

Read-outs that look alike come from different tables or passages of the source. Where a SMILES comes first, the peptide text is derived from it. [ ]: non-standard residue; d: D form. Oic = O=C(O)[C@@H]1C[C@@H]2CCCC[C@@H]2N1; Tic = O=C(O)[C@@H]1Cc2ccccc2CN1; Dab = NCC[C@H](N)C(=O)O

Series [1] has as its system K. pneumoniae BAMC 07-18. It counts as cell-based, Klebsiella pneumoniae. From the text: Table 3 In vitro minimum inhibitory concentration (MIC) and minimum bactericide concentration (MBC) activity against K. pneumonia and P. aeruginosa. | column: K. pneumoniae BAMC 07-18 / MBC (μg/mL)/(μM)
Series [2] deals with P. aeruginosa PAO1. It counts as cell-based, Pseudomonas aeruginosa. The text has this:
Table 3 In vitro minimum inhibitory concentration (MIC) and minimum bactericide concentration (MBC) activity against K. pneumonia and P. aeruginosa. | column: P. aeruginosa PAO1 / MBC (µg/mL)/(μM)

The test system of series [3] is LPS isolated from P. aeruginosa or K. pneumoniae. In words: Precipitation of AMP-LPS mixtures prepared for CD. The format is physicochemical. Conditions: 350 μL stock LPS + 50 μL stock peptide, phosphate buffer; CD spectra could not be obtained. As for the experimental part:
Peptide solutions were prepared by dissolving approximately 2 mg of AMPs 70, 74, 75, 79, or 80 in 1.0 mL of phosphate buffer. […] For the LPS liposome studies 350 μL of stock LPS solution was mixed with 50 μL of stock peptide solution. CD spectroscopy is a sensitive technique, so it is commonly used to monitor conformational changes in peptides and proteins. […] All CD spectra were obtained by acquiring 8 scans using a 0.1 mm cylindrical quartz cell with a spectral range of 260 to 195 nm (at wavelengths below 195 nm the HTV exceeded 400, and therefore data collection was terminated at 195 nm) and a scanning rate of 20 nm/min. Acquisition parameters were bandwidth 1 nm, data pitch 0.2 nm, response time 2.0 s, and 5 mdeg sensitivity. Spectra were collected at room temperature (298 K). Contributions from LPS were eliminated by subtracting from the corresponding AMP-LPS solutions. All analyses of CD spectra were conducted after smoothing with a means-movement function.

Series [4] concerns K. pneumoniae BAMC 07-18.
The subject of series [5] is P. aeruginosa PAO1.
[6] abbreviates: K. pneumoniae BAMC 07-18, light face value.
Where [7] appears, read: P. aeruginosa PAO1, light face value.

With `CC(C)C[C@H](NC(=O)[C@@H](N)CCN)C(=O)N1Cc2ccccc2C[C@H]1C(=O)N1[C@H](C(=O)N[C@@H](CCN)C(=O)N2Cc3ccccc3C[C@H]2C(=O)N2[C@H](C(=O)N[C@@H](Cc3ccccc3)C(=O)N3Cc4ccccc4C[C@H]3C(=O)N3[C@H](C(=O)N[C@@H](CCN)C(=O)N4Cc5ccccc5C[C@H]4C(=O)N4[C@H](C(=O)N[C@@H](Cc5ccccc5)C(=O)N5Cc6ccccc6C[C@H]5C(=O)N5[C@H](C(=O)N[C@@H](CCN)C(=O)N6Cc7ccccc7C[C@H]6C(=O)N6[C@H](C(=O)N[C@@H](CCN)C(=O)N[C@@H](CCN)C(=O)N[C@@H](CCN)C(=O)N[C@@H](CCN)C(N)=O)C[C@@H]7CCCC[C@@H]76)C[C@@H]6CCCC[C@@H]65)C[C@@H]5CCCC[C@@H]54)C[C@@H]4CCCC[C@@H]43)C[C@@H]3CCCC[C@@H]32)C[C@@H]2CCCC[C@@H]21` [AMP 73] (H-[Dab]L[Tic][Oic][Dab][Tic][Oic]F[Tic][Oic][Dab][Tic][Oic]F[Tic][Oic][Dab][Tic][Oic][Dab][Dab][Dab][Dab]-NH2), the MBC in series [1] (BAMC 07-18) amounted to 32.4 µM; in series [1] (setting [6]), 100 µg/mL; in series [2] (setting [7]) it was 100 µg/mL; in series [2] (PAO1), 32.4 µM. Moreover, the “precipitation in the presence of either LPS” value in series [3] is on record as “precipitation of uncharacterized AMP-LPS complexes”. The MIC in series [4] (BAMC 07-18) amounted to 16.2 µM; in series [4] (setting [6]) it was 50 µg/mL; in series [5] (setting [7]), 50 µg/mL; in series [5] (PAO1) it was 16.2 µM.
